In patent US20250082633A1, “COMPOUNDS AND METHODS FOR MODULATING SPLICING” (REMIX THERAPEUTICS INC., priority 2021, published 2025) one finds IC50, GI50 and AC50 data, which are given here for 3 molecules.

What all share (type): cell-based
The test system of one assay is SMN2 mRNA. Put plainly: RT-qPCR splicing assay, gene panel, SMN2 canonical junction (CJ) mRNA. The following applies: Homo sapiens; decrease in CJ mRNA levels; larger panel of genes; Table 3; read-out: SMN2 CJ IC50. The procedure: (§1) Compounds described herein were used to modulate RNA transcript abundance in cells. The expression of a target mRNA was measured by detecting the formation of an exon-exon junction in the canonical transcript (CJ). A compound mediated exon-inclusion event was detected by observing an increase in formation of a new junction with an alternative exon (AJ). Real-time qPCR assays were used to detect these splicing switches and interrogate the potency of various compounds towards different target genes. A high-throughput real time quantitative PCR (RT-qPCR) assay was developed to measure these two isoforms of the mRNA (CJ and AJ) for exemplary genes, such as HTT, SMN2, and MYB, together with a control housekeeping gene, GAPDH or GUSB or PPIA, used for normalization. Briefly, the A673 or K562 cell line was treated with various compounds described herein (e.g., compounds of Formula (I)). After treatment, the levels of the HTT, MYB, or SMN2 mRNA targets were determined from each sample of cell lysate by cDNA synthesis followed by qPCR.
(§2) The A673 cell line was cultured in DMEM with 10% FBS. Cells were diluted with full growth media and plated in a 96-well plate (15,000 cells in 100 ul media per well). The plate was incubated at 37° C. with 5% CO2 for 24 hours to allow cells to adhere. An 11-point 3-fold serial dilution of the compounds was made in DMSO then diluted in media in an intermediate plate. Compounds were transferred from the intermediate plate to the cell plate with the top dose at a final concentration of 10 uM in the well. Final DMSO concentration was kept at or below 0.25%. The cell plate was returned to the incubator at 37° C. with 5% CO2 for an additional 24 hours.
(§3) The K562 cell line was cultured in IMDM with 10% FBS. For K562, cells were diluted with full growth media and plated in either a 96-well plate (50,000 cells in 50 uL media per well) or a 384-well plate (8,000-40,000 cells in 45 uL media per well). An 11-point 3-fold serial dilution of the compounds were made in DMSO then diluted in media in an intermediate plate. Compound was transferred from the intermediate plate to the cell plate with the top dose at a final concentration of 10 uM in the well. Final DMSO concentration was kept at or below 0.25%. Final volume was 100 uL for 96-well plate and 50 uL for 384-well plate. The cell plate was then placed in an incubator at 37° C. with 5% CO2 for 24 hours.
(§4) The cells were then gently washed with 50 uL-100 uL cold PBS before proceeding to addition of lysis buffer. 30 uL-50 μL of room temperature lysis buffer with DNAse I (and optionally RNAsin) was added to each well. Cells were shaken/mixed thoroughly at room temperature for 5-10 minutes for lysis to take place and then 3 uL-5 μL of room temperature stop solution was added and wells were shaken/mixed again. After 2-5 minutes, the cell lysate plate was transferred to ice for RT-qPCR reaction setup. The lysates could also be frozen at −80° C. for later use.
(§5) In some cases, a direct lysis buffer was used. An appropriate volume of 3× lysis buffer (10 mM Tris, 150 mM NaCl, 1.5%-2.5% Igepal and 0.1-1 U/uL RNAsin, pH 7.4) was directly added to either K562 or A673 cells in media and mixed by pipetting 3 times. The plates were then incubated at room temperature with shaking/rocking for 20-50 minutes to allow for lysis to take place. After this time, the cell lysate plate was transferred to ice to set up for the RT-qPCR reactions. The lysates could also be frozen at −80° C. for later use.
(§6) To set up 10 uL RT-qPCR reactions, cell lysates were transferred to 384-well qPCR plates containing the master mix according to the table below. The plates were sealed, gently vortexed, and spun down before the run. The volumes were adjusted accordingly in some instances where the reaction was carried in 20 μL. The table below summarizes the components of the RT-qPCR reactions:
(§7) The RT-qPCR reaction was performed using a QuantStudio (ThermoFisher) under the following fast cycling conditions. […]
For orientation: Real-time PCR tracks product formation cycle by cycle.

The next assay concerns K562 cells. The assay can be described thus: Cell Titer Glo 2.0 cell viability assay. Particulars: Homo sapiens, 500 cells/well, 72 hours. Here is the method:
Compounds described herein were screened for toxicity in K562 (human chronic myelogenous leukemia) and SH-SY5Y (human neuroblastoma) cells using a Cell Titer Glo 2.0 assay. • Promega CellTiter-Glo® 2.0 Cell Viability Assay (cat #G9241) • Corning 384-well TC-treated microplates (cat #3570) Cells were plated at 500 cells/well (K562 cells) in 45 μL of IMDM supplemented with 10% FBS in a 384-well opaque plate. Wells containing only medium were used as a blank control. Test compounds (e.g., compounds of Formula (I), (II), or (III)) were first serially diluted in DMSO then diluted 1:100 with IMDM+10% FBS. The final concentration of DMSO was 0.1% in each well. The cells were incubated for 72 hours at 37° C. and 5% CO2 before assaying with Cell Titer Glo 2.0 reagent.

For the next assay, the system named is MYB mRNA. Put plainly: RT-qPCR splicing assay, MYB canonical (CJ) and alternative (AJ) junction mRNA. The following applies: Homo sapiens; for IC50: read-out: MYB CJ IC50; for AC50: increase in alternative junction mRNA, read-out: MYB AJ AC50. The procedure: as §1
(§8) • Cells-to-CT 1-step kit: ThermoFisher A25602, Cells-to-CT lysis reagent: ThermoFisher 4391851C, TaqMan™ Fast Virus 1-Step Master Mix: ThermoFisher 4444436 • GAPDH: VIC-PL, ThermoFisher 4326317E (Assay: Hs99999905_m1)—used for K562/suspension cell lines • GUSB: VIC-PL, ThermoFisher 4326320E (Assay: Hs99999908_m1)—used for K562/suspension cell lines • PPIA: VIC-PL, ThermoFisher 4326316E (Assay: Hs99999904_m1)—used for A673/adherent cell lines
as §2, §3, §4
(§9) In some cases, a direct lysis buffer was used. An appropriate volume of 3× lysis buffer (10 mM Tris, 150 mM NaCl, 1.5%-2.5% Igepal and 0.1-1 U/uL RNAsin, pH 7.4) was directly added to either K562 or A673 cells in media and mixed by pipetting 3 times. The plates were then incubated at room temperature with shaking/rocking for 20-50 minutes to allow for lysis to take place. After this time, the cell lysate plate was transferred to ice to set up for the RT-qPCR reactions. The lysates could also be frozen at −80° C. for later use. […]

A further assay concerns Target C. Put plainly: RT-qPCR splicing assay, gene panel, Target C canonical junction (CJ) mRNA. The following applies: Homo sapiens; decrease in CJ mRNA levels; larger panel of genes; Table 3; read-out: Target C CJ IC50. Here is the method: as §1, §2, §3, §4, §5, §6, §7
For the next assay, the system named is HTT mRNA. Put plainly: RT-qPCR splicing assay, HTT canonical (CJ) and alternative (AJ) junction mRNA. Particulars: Homo sapiens; for IC50: read-out: HTT CJ IC50; for AC50: increase in alternative junction mRNA, read-out: HTT AJ AC50. The procedure: as §1, §8, §2, §3, §4, §9
Setting [1] is: decrease in CJ mRNA levels, larger panel of genes, Table 3.
The mark [2] stands for this setting: decrease in canonical junction mRNA, A673 or K562 cells, 24 hours treatment, Table 2.
The mark [3] stands for this setting: A673 or K562 cells, 24 hours treatment, Table 2.

The structures appear in SMILES notation. Read-outs that look alike come from different tables or passages of the source.

One may read the IC50 as the midpoint of a concentration-inhibition curve. The GI50 is the concentration giving 50% growth inhibition. Higher therefore signals lower sensitivity of the cells. As a reminder, the AC50 is the midpoint of the concentration-response curve, whichever way the signal moves.

For the molecule `Cc1cn2nc(-c3cc(F)c4nn(C5CCNC6(CC6)C5)cc4c3)cc2c(C)n1` (stereo in doubt) [Compound 206, 2-[2-[(7R)-4-azaspiro[2.5]octan-7-yl]-7-fluoro-indazol-5-yl]-4,6-dimethyl-pyrazolo[1,5-a]pyrazine], the IC50 with SMN2 mRNA is 100 to 1000 nM; in the assay with MYB mRNA (setting [1]), 100 to 1000 nM; in the assay with MYB mRNA (setting [2]) it was 100 to 1000 nM; in the assay on Target C it was 100 to 1000 nM; in the assay with HTT mRNA (setting [1]), below 100 nM; in the assay with HTT mRNA (setting [2]) it was below 100 nM. This molecule also came in with a concentration for 50% growth inhibition (GI50) with K562 cells of 100 to 1000 nM. The AC50 in the assay with MYB mRNA (setting [3]) and with HTT mRNA (setting [3]) was 100 to 1000 nM in each case.

Take `Cc1cn2nc(-c3ccc4nn(C5CCNC6(CC6)C5)cc4n3)cc(C)c2n1` (stereo not drawn) [Compound 201, 6-[2-(4-azaspiro[2.5]octan-7-yl)pyrazolo[4,3-b]pyridine-5-yl]-2,8-dimethyl-imidazo[1,2-b]pyridazine]: the IC50 lay in the range of 100 to 1000 nM in the assay on SMN2 mRNA; 1000 to 10000 nM in the assay on MYB mRNA (setting [1]); 1000 to 10000 nM with MYB mRNA (setting [2]); 1000 to 10000 nM in the assay on Target C; 100 to 1000 nM with HTT mRNA (setting [1]); 100 to 1000 nM with HTT mRNA (setting [2]). The same molecule showed a concentration for 50% growth inhibition (GI50) in the assay with K562 cells of 1000 to 10000 nM. Moreover, the AC50 in the assay with MYB mRNA (setting [3]) and in the assay with HTT mRNA (setting [3]) was 1000 to 10000 nM throughout.

Turning to `Cc1cn2nc(-c3cc(F)c4nn([C@@H]5CCN(C)C[C@H]5F)cc4c3)cc(C)c2n1` [Compound 197, 6-(7-fluoro-2-((3R,4R)-3-fluoro-1-methylpiperidin-4-yl)-2H-indazol-5-yl)-2,8-dimethylimidazo[1,2-b]pyridazine], the IC50 in the assay on SMN2 mRNA was 100 to 1000 nM; with MYB mRNA (setting [1]) it was 1000 to 10000 nM; in the assay on MYB mRNA (setting [2]), 1000 to 10000 nM; in the assay on Target C, 1000 to 10000 nM; in the assay with HTT mRNA (setting [1]), 100 to 1000 nM; in the assay on HTT mRNA (setting [2]) it was 100 to 1000 nM. Moreover, the concentration for 50% growth inhibition (GI50) in the assay with K562 cells was in the range of 1000 to 10000 nM. The AC50 in the assay with MYB mRNA (setting [3]) is 1000 to 10000 nM; in the assay with HTT mRNA (setting [3]), 100 to 1000 nM.
